# Counter-ions that a name gives are not always drawn.
# Target: GST tagged IRAK4 (Homo sapiens (Human), UniProt Q9NWZ3)
# Test: IRAK4 Kinase Assay (IMAP fluorescence polarization)
# Type: biochemical
# Details: 0.5 nM GST tagged IRAK4, 100 μM ATP, 30 minutes at 25° C.
# How it was run: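 GST-tagged IRAK4 (0.5 nM) phosphorylates 100 nM fluorescent peptide with 100 μM ATP in 10 mM Tris pH 7.2, 1 mM MgCl2, 1 mM DTT, 0.01% Tween 20 for 30 min at 25 °C. Phosphorylation read as IMAP nanoparticle-binding fluorescence polarization after stop reagent.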
# Chain of GST tagged IRAK4 (Q9NWZ3 whole entry): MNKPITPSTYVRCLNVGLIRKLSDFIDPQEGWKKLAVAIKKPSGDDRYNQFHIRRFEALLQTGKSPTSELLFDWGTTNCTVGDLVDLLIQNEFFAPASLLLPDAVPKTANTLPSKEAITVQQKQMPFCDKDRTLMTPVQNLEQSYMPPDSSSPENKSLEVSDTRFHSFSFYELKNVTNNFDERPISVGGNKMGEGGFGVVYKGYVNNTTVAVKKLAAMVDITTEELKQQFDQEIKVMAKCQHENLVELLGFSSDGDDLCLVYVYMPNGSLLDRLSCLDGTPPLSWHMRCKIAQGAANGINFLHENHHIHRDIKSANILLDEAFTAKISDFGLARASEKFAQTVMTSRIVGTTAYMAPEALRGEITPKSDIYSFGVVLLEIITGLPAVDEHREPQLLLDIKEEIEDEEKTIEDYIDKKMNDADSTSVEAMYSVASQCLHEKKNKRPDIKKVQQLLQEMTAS
row,Compound,IC50 [nM]
1,"Cn1cc(NC(=O)c2csc3ncc(N4CCCNCC4)nc23)c(C#N)n1 [Example 28, N-(3-cyano-1-methyl-1H-pyrazol-4-yl)-2-(1,4-diazepan-1-yl)thieno[2,3-b] pyrazine-7-carboxamide trifluoroacetate]",26
2,"Cn1cc(NC(=O)c2csc3ncc(N[C@@H]4CCCC(F)(F)[C@@H]4N)nc23)c(Br)n1 [Example 29, 2-{[(1R,2R)-2-amino-3,3-difluorocyclohexyl]amino}-N-(3-(bromo-1-methyl-1H-pyrazol-4-yl)thieno[2,3-b]pyrazine-7-carboxamide trifluoroacetate]",107
3,"N#Cc1sccc1NC(=O)c1csc2ncc(N[C@@H]3CCCC(F)(F)[C@@H]3N)nc12 [Example 78, 2-{[(1R,2R)-2-amino-3,3-difluorocyclohexyl]amino}-N-(2-cyanothiophen-3-yl) thieno[2,3-b] pyrazine-7-carboxamide trifluoroacetate]",3660
4,"Cn1cc(NC(=O)c2csc3ncc(N4CCC[C@@H](N)C4)nc23)c(C(F)(F)F)n1 [Example 9, 2-[(3R)-3-aminopiperidin-1-yl]-N-[1-methyl-3-(trifluoromethyl)-1H-pyrazol-4-yl] thieno[2,3-b] pyrazine-7-carboxamide trifluoroacetate]",1
5,"Cn1cc(NC(=O)c2csc3ncc(N4CC5CCC(C4)N5)nc23)c(C(F)F)n1 [Example 40, 2-(3,8-diazabicyclo[3.2.1]oct-3-yl)-N-[3-(difluoromethyl)-1-methyl-1H-pyrazol-4-yl]thieno[2,3-b] pyrazine-7-carboxamide trifluoroacetate]",0.6
6,"Cn1cc(NC(=O)c2csc3ncc(N4CCNCC5(CC5)C4)nc23)c(C(F)(F)F)n1 [Example 8, 2-(5,8-diazaspiro[2.6]non-5-yl)-N-[1-methyl-3-(trifluoromethyl)-1H-pyrazol-4-yl] thieno[2,3-b] pyrazine-7-carboxamide trifluoroacetate]",18
7,"Cn1cc(NC(=O)c2csc3ncc(N4CCNCC4)nc23)c(C(F)(F)F)n1 [Example 2, N-[1-methyl-3-(trifluoromethyl)-1H-pyrazol-4-yl]-2-piperazin-1-ylthieno[2,3-b] pyrazine-7-carboxamide trifluoroacetate]",42
8,"O=C(Nc1cscc1C(F)F)c1csc2ncc(N3CCCNCC3)nc12 [Example 47, 2-(1,4-diazepan-1-yl)-N-[4-(difluoromethyl)thiophen-3-yl] thieno[2,3-b] pyrazine-7-carboxamide trifluoroacetate]",38
9,"Cn1cc(NC(=O)c2csc3ncc(N[C@@H]4CCCC[C@@H]4N)nc23)c(Cl)n1 [Example 35, 2-{[(1R,2S)-2-aminocyclohexyl]amino}-N-(3-chloro-1-methyl-1H-pyrazol-4-yl)thieno[2,3-b] pyrazine-7-carboxamide trifluoroacetate]",0.3
10,"N[C@H]1CCCC[C@H]1Nc1cnc2scc(C(=O)Nc3cscc3C(F)F)c2n1 [Example 50, 2-{[(1R,2S)-2-aminocyclohexyl]amino}-N-(4-(difluoromethyl)thiophen-3-yl] thieno[2,3-b] pyrazine-7-carboxamide trifluoroacetate]",0.7

# Next, values leading:
row,IC50 [nM],Compound
1,228,"N#Cc1sccc1NC(=O)c1csc2ncc(N3C[C@@H]4CC[C@H]3CN4)nc12 (single isomer, unassigned) [Example 69, N-(2-cyanothiophen-3-yl)-2-[(1S,4S)- or (1R,4R)-2,5-diazabicyclo[2.2.2]oct-2-yl]thieno[2,3-b] pyrazine-7-carboxamide trifluoroacetate]"
2,612,"O=C(Nc1ccccc1Br)c1csc2ncc(N3C[C@H]4CC[C@@H]3CN4)nc12 (single isomer, unassigned) [Example 89, N-(2-bromophenyl)-2-[(1S,4S)- or (1R,4R)-2,5-diazabicyclo-[2.2.2]oct-2-yl]thieno[2,3-b]-pyrazine-7-carboxamide trifluoroacetate]"
3,4,"Cn1cc(NC(=O)c2csc3ncc(N4CC5CCC4CN5)nc23)c(C(F)F)n1 (stereo not shown) [Example 11, 2-(2,5-diazabicyclo[2.2.2]oct-2-yl)-N-[3-(difluoromethyl)-1-methyl-1H-pyrazol-4-yl]thieno[2,3-b] pyrazine-7-carboxamide]"
4,812,"O=C(Nc1cscc1Br)c1csc2ncc(N3C[C@@H]4CC[C@H]3CN4)nc12 (single isomer, unassigned) [Example 46, N-(4-bromothiophen-3-yl)-2-[(1S,4S)- or (1R,4R)-2,5-diazabicyclo[2.2.2]oct-2-yl]thieno[2,3-b] pyrazine-7-carboxamide]"
5,173,"N#Cc1ccccc1NC(=O)c1csc2ncc(N3C[C@@H]4CC[C@H]3CN4)nc12 (single isomer, unassigned) [Example 97, N-(2-cyanophenyl)-2-[(1S,4S)- or (1R,4R)-2,5-diazabicyclo-[2.2.2]oct-2-yl]thieno[2,3-b]-pyrazine-7-carboxamide trifluoroacetate]"
6,251,"N#Cc1ccccc1NC(=O)c1csc2ncc(N3C[C@H]4CC[C@@H]3CN4)nc12 (single isomer, unassigned) [Example 98, N-(2-cyanophenyl)-2-[(1S,4S)- or (1R,4R)-2,5-diazabicyclo-[2.2.2]oct-2-yl]thieno[2,3-b]-pyrazine-7-carboxamide trifluoroacetate]"
7,46,"Cn1cc(NC(=O)c2csc3ncc(N4C[C@@H]5CC[C@H]4CN5)nc23)c(C#N)n1 (single isomer, unassigned) [Example 26, N-(3-cyano-1-methyl-1H-pyrazol-4-yl)-2-[(1S,4S)- or (1R,4R)-2,5-diazabicyclo[2.2.2]oct-2-yl]thieno[2,3-b] pyrazine-7-carboxamide trifluoroacetate]"
8,70,"Cn1cc(NC(=O)c2csc3ncc(N4C[C@@H]5CC[C@H]4CN5)nc23)c(Br)n1 (single isomer, unassigned) [Example 19, N-(3-bromo-1-methyl-1H-pyrazol-4-yl)-2-[(1S,4S)- or (1R,4R)-2,5-diazabicyclo[2.2.2]oct-2-yl]thieno[2,3-b] pyrazine-7-carboxamide trifluoroacetate]"
9,2,"N[C@H]1CCCC[C@H]1Nc1cnc2scc(C(=O)Nc3ccccc3Br)c2n1 [Example 87, 2-{[(1R,2S)-2-aminocyclohexyl]-amino}-N-(2-bromophenyl)-thieno[2,3-b]-pyrazine-7-carboxamide trifluoroacetate]"
10,767,"O=C(Nc1ccsc1Br)c1csc2ncc(N3C[C@H]4CC[C@@H]3CN4)nc12 (single isomer, unassigned) [Example 64, N-(2-bromothiophen-3-yl)-2-[(1S,4S)- or (1R,4R)-2,5-diazabicylo[2.2.2]oct-2-yl]thieno[2,3-b] pyrazine-7-carboxamide trifluoroacetate]"
11,224,"N#Cc1sccc1NC(=O)c1csc2ncc(N3C[C@H]4CC[C@@H]3CN4)nc12 (single isomer, unassigned) [Example 70, N-(2-cyanothiophen-3-yl)-2-[(1S,4S)- or (1R,4R)-2,5-diazabicyclo[2.2.2]oct-2-yl]thieno[2,3-b] pyrazine-7-carboxamide trifluoroacetate]"
12,15,"Cn1cc(NC(=O)c2csc3ncc(N4CCCNCC4)nc23)c(Br)n1 [Example 21, N-(3-bromo-1-methyl-1H-pyrazol-4-yl)-2-(1,4-diazepan-1-yl)thieno[2,3-b] pyrazine-7-carboxamide trifluoroacetate]"

# — patent US10040802B2, “Thienopyrazine inhibitors of IRAK4 activity” (MERCK SHARP & DOHME CORP., priority 2015, dated 2018)
